{"source": "patent US20260306526A1", "about": "“COMBINATION THERAPY FOR BACTERIAL INFECTIONS COMPRISING ZINC-CHELATOR, BETA-LACTAM ANTIBIOTIC AND SERINE BETA-LACTAMASE INHIBITOR” (priority 2023, published 2026)", "tested_on": "Pseudomonas aeruginosa ST773", "assay": "MIC determination, fixed concentration of sBLI (Examples 19-26)", "type": "cell-based", "details": "NDM-1, OXA-395, PDC-16, caMHB", "experimental": "Antimicrobial susceptibility testing (AST) by broth microdilution (MIC determination) was performed according to The European Committee on Antimicrobial Susceptibility Testing (EUCAST) guidelines (see Reading guide for broth microdilution Version 5.0, 2024: https://www.eucast.org).\nFor combinations containing meropenem as the antibiotic, Sensititre™ FINMER meropenem 64-0.03 μg/mL plates (Thermo Fischer Diagnostics custom plates; YFINMER) were used in most of the experiments. For other antibiotics (and for meropenem whenever a higher start concentration than 64 μg/mL was needed) sterile clear round bottom polystyrene (non-treated) 96-well microplates (Corning 3788) were used for making serial two-fold dilutions of the antibiotic in cation-adjusted Mueller Hinton II broth (caMHB; Thermo Scientific, T3462, containing 29.4 μM Zn^2+ or MILLIPORE, 90922-500G, containing 5.6 μM Zn^2+), across the columns of the microtiter plate (128-0.06 μg/mL; columns 1-12).\nThe checkerboard plates were all modified by adding a serine β-lactamase inhibitor (sBLI) at a fixed concentration of 16 μg/mL. Additionally, the zinc chelator was added at various fixed concentrations. Samples were mixed so that all plates contained a control containing antibiotic alone (no sBLI, no zinc chelator), a sample containing antibiotic and sBLI (double combination; no zinc chelator), and a sample containing antibiotic, sBLI and zinc chelator (triple combination). All test wells used in each plate contained growth medium (caMHB), and inoculated bacteria at a final inoculum between 3-7×10^5 CFU/mL. […] Synergy for the triple combination (antibiotic, sBLI, and zinc chelator) was defined as when the MIC in any of the rows containing the zinc chelator in combination with antibiotic and sBLI (triple combination), was lower than for antibiotic alone and lower than for the antibiotic and sBLI double combination.\n(§1) An X in rows 1~4 in the table indicates growth of the bacterial inoculum, while a blank cell indicates no growth. Concentrations (μg/mL) of MEM are given in row 0. TAZ and the zinc chelator were added in fixed concentrations (TAZ at 16 μg/mL in rows 2-4, zinc chelator at 16 μg/mL in row 3 and at 8 μg/mL in row 4). As a control, the effect of MEM alone was tested (row 1). All wells contained bacterial growth medium (caMHB, 29.4 μM Zn^2+) and were inoculated with the test bacterium. The grey cells indicate the meropenem MIC.\nas §1, with “AZT” for “MEM”, “AVI” for “TAZ”, “(AVI” for “(TAZ”, “aztreonam” for “meropenem”\nTwo technical replicates were performed for each sample. An X in rows 1-8 in the table indicates growth of the bacterial inoculum, while a blank cell indicates no growth. Concentrations (μg/mL) of PIP are given in row 0. AVI and the zinc chelator were added in fixed concentrations (AVI at 16 μg/mL in rows 3-8, zinc chelator at 16 μg/mL in rows 5-6 and at 8 μg/mL in rows 7-8). As a control, the effect of PIP alone was tested (rows 1-2). All wells contained bacterial growth medium (caMHB, 29.4 μM Zn^2+) and were inoculated with the test bacterium. The grey cells indicate the piperacillin MIC.\nas §1, with “PIP” for “MEM”, “All wells contained bacterial growth medium (caMHB, 29.4 μM Zn^2+) and were inoculated with the test bacterium. The grey cells indicate the meropenem MIC.” left out", "note": "Several values for one entry are separate records, joined by “and”; a condition that tells them apart may be missing. Equal entries are not always repeated.", "data": [{"smiles": "CN(C[C@H](O)[C@@H](O)[C@H](O)[C@H](O)CO)C(=O)c1ccc(CN(Cc2ccccn2)Cc2ccccn2)nc1", "note": "[zinc chelator]", "values": [{"measurement": "Synergy with the zinc chelator observed at concentration", "setting": "Example 19, with MEM and TAZ 16 μg/mL, 29.4 μM Zn2+", "value": 16, "unit": "µg/mL"}, {"measurement": "Synergy with the zinc chelator observed at concentration", "setting": "Example 20, with AZT and AVI 16 μg/mL, 29.4 μM Zn2+", "value": 16, "unit": "µg/mL"}, {"measurement": "Synergy with the zinc chelator observed at concentration", "setting": "Example 21, with PIP and AVI 16 μg/mL, 29.4 μM Zn2+, 8 μg/mL for one replicate only, other replicate not interpretable", "value": "16 µg/mL and 8 µg/mL"}, {"measurement": "Synergy with the zinc chelator observed at concentration", "setting": "Example 22, with PIP and TAZ 16 μg/mL, 29.4 μM Zn2+", "value": 16, "unit": "µg/mL"}, {"measurement": "Synergy with the zinc chelator observed at concentration", "setting": "Example 24, with MEM and TAZ 16 μg/mL, 5.6 μM Zn2+, 16 and 4 μg/ml not interpretable according to EUCAST", "value": 8, "unit": "µg/mL"}, {"measurement": "Synergy with the zinc chelator observed at concentration", "setting": "Example 26, with PIP and TAZ 16 μg/mL, 5.6 μM Zn2+, 16 μg/mL not interpretable according to EUCAST", "value": "8 µg/mL and 4 µg/mL"}]}]}
